Measured values taken from paper PMC11233931, “Remodeling tumor‐associated macrophage for anti‐cancer effects by rational design of irreversible inhibition of mitogen‐activated protein kinase‐activated protein kinase 2” (MedComm, 2024).

Experiments:
Experiment in all cases: Eurofins kinase selectivity profile against 380 other human recombinant kinases (Table S2)
Assay type in all cases: biochemical
[1] = biological target: T1, 380 human recombinant protein kinases (Homo sapiens, UniProt O14965); conditions: Aurora-A(h), read-out: Inhibition rate
T1 construct: purchased Eurofins (Celle Lévescault)
T1 sequence (O14965 1-403): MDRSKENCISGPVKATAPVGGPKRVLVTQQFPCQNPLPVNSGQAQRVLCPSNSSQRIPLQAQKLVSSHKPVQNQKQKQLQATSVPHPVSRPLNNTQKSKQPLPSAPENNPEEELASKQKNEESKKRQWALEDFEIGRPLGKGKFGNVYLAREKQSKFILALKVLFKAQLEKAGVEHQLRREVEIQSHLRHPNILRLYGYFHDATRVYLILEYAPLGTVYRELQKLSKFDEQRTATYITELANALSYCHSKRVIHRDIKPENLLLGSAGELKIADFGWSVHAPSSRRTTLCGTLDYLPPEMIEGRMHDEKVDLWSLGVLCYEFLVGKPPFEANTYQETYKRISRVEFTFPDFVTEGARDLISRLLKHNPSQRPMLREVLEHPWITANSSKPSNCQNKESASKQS
Summary of the method: (§1)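 Outsourced panel: 380 human recombinant kinases; inhibitor tested at various concentrations; purpose: MK2 selectivity check.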

[2] = biological target: T2, 380 human recombinant protein kinases (Homo sapiens, UniProt P10398); conditions: A-Raf(h), read-out: Inhibition rate
T2 construct: purchased Eurofins (Celle Lévescault)
T2 sequence (P10398 1-606): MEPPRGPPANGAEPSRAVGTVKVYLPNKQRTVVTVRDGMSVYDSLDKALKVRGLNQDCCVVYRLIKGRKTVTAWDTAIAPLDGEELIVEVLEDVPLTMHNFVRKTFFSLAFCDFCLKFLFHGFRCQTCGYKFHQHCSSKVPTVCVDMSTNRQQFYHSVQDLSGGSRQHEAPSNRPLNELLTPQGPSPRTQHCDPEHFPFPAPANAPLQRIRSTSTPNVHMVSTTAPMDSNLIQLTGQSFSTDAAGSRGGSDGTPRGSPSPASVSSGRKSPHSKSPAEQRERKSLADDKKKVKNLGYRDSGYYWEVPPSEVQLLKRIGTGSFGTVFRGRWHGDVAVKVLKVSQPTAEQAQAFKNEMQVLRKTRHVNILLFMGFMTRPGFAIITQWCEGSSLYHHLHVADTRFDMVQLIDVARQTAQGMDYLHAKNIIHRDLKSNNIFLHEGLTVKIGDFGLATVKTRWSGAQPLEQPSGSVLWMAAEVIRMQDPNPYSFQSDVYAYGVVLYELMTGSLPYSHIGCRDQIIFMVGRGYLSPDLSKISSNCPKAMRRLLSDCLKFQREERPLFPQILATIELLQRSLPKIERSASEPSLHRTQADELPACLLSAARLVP
Summary of the method: as §1

[3] = biological target: T3, 380 human recombinant protein kinases (Homo sapiens, UniProt Q8NE63); conditions: HIPK4(h), read-out: Inhibition rate
T3 construct: purchased Eurofins (Celle Lévescault)
T3 sequence (Q8NE63 1-616): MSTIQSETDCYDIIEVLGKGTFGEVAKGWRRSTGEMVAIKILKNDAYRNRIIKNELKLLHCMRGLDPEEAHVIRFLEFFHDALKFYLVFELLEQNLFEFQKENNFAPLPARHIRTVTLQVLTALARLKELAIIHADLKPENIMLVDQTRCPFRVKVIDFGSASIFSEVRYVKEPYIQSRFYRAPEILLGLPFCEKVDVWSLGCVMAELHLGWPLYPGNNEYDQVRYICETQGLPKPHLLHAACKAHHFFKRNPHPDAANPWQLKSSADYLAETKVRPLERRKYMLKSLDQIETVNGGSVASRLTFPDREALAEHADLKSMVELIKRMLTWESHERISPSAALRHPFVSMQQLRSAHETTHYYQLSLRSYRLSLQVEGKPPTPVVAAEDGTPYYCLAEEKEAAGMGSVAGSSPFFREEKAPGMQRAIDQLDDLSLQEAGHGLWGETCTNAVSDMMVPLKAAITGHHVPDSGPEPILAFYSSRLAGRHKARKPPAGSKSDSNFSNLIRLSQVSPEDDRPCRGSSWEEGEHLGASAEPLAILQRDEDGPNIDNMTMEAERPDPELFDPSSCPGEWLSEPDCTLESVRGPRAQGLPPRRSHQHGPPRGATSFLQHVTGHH
Summary of the method: as §1

[4] = biological target: T4, 380 human recombinant protein kinases (Homo sapiens, UniProt P37023); conditions: ALK1(h), read-out: Inhibition rate
T4 construct: purchased Eurofins (Celle Lévescault)
T4 sequence (P37023 22-503): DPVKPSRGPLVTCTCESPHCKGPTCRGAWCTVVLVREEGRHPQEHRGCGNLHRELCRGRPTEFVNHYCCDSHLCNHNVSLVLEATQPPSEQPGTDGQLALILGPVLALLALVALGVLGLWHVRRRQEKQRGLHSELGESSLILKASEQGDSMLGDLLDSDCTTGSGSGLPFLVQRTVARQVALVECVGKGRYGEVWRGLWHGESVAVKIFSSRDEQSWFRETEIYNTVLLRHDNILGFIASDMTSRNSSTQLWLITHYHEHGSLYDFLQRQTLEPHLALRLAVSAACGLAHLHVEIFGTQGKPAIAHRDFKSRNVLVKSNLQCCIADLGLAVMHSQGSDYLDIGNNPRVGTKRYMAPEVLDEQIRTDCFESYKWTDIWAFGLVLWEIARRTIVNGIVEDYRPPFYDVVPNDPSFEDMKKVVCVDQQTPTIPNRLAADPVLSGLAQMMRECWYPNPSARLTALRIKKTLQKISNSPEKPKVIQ
Summary of the method: as §1

[5] = biological target: T5, 380 human recombinant protein kinases (Homo sapiens, UniProt O75460); conditions: IRE1(h), read-out: Inhibition rate
T5 construct: purchased Eurofins (Celle Lévescault)
T5 sequence (O75460 19-977): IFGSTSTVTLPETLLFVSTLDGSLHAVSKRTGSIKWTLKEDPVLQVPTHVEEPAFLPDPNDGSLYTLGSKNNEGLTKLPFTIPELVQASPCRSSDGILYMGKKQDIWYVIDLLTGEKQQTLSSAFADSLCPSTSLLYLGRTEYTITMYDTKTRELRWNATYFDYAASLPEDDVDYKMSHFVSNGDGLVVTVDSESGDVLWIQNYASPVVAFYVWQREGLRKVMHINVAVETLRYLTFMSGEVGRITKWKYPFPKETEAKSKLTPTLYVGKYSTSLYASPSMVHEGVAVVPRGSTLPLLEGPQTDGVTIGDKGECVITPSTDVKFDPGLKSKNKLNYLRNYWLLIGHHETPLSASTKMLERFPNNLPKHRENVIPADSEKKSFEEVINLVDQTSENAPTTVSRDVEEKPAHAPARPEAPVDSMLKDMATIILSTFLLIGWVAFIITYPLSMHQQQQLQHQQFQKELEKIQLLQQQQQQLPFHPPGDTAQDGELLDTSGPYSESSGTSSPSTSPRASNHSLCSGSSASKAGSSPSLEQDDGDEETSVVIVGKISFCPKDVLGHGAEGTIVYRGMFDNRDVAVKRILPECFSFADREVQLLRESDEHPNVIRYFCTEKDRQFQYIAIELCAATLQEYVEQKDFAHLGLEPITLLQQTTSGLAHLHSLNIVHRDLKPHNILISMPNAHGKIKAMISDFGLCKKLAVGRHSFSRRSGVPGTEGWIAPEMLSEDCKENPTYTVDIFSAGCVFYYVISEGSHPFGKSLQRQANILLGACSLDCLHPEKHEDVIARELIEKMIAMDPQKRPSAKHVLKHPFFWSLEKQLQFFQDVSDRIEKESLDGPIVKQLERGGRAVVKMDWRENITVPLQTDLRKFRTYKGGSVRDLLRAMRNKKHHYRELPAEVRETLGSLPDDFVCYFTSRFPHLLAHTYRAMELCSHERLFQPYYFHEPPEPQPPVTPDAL
Summary of the method: as §1

[6] = biological target: T6, 380 human recombinant protein kinases (Homo sapiens, UniProt O00141); conditions: SGK(h), read-out: Inhibition rate (%)
T6 construct: purchased Eurofins (Celle Lévescault)
T6 sequence (O00141 1-431): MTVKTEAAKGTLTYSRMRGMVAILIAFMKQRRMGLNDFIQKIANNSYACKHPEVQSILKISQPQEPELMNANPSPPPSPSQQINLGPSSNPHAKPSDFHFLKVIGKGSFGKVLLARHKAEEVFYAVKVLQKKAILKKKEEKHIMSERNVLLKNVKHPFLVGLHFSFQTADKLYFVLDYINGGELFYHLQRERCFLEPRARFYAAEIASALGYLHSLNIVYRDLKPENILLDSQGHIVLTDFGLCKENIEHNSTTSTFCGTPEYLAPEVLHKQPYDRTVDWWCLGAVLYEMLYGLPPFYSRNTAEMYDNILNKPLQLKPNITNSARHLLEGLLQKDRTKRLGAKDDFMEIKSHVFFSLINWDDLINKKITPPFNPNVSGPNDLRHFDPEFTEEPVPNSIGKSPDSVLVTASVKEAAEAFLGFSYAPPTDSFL
Summary of the method: as §1

[7] = biological target: T7, 380 human recombinant protein kinases (Homo sapiens, UniProt P16591); conditions: Fer(h), read-out: Inhibition rate
T7 construct: purchased Eurofins (Celle Lévescault)
T7 sequence (P16591 whole entry): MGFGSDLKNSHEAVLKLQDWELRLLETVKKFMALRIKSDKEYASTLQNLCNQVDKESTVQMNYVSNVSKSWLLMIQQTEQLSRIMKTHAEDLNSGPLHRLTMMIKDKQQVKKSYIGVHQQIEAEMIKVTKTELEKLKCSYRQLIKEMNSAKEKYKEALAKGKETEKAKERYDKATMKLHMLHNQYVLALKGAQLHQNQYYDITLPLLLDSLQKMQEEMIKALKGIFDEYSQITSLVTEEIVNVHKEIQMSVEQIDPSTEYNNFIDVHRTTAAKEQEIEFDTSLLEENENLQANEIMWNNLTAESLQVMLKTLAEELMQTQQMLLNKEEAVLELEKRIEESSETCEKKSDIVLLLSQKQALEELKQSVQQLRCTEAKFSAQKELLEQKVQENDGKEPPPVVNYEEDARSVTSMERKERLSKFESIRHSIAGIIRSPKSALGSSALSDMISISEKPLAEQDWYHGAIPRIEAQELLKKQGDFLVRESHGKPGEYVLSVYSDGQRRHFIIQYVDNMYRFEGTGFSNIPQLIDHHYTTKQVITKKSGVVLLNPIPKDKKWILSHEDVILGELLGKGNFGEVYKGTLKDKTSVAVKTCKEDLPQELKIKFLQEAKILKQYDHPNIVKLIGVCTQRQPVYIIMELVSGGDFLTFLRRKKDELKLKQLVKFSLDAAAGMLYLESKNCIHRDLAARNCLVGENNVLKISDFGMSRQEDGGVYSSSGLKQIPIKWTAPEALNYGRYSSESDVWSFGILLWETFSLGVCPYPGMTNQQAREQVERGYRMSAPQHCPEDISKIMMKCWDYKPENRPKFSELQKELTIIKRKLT
Summary of the method: as §1

Which inhibition at 0.01 µM ([1]; 10 nM) does the source give for `C=CC(=O)Nc1cc(-c2cc(-c3cc4c([nH]3)CCNC4=O)ccn2)ccc1OC(F)(F)F` [compound 11] here?
Its inhibition at 0.01 µM is -1%.

And the inhibition at 0.1 µM ([1]; 100 nM)?
The inhibition at 0.1 µM was 1%.

What about the inhibition at 1 µM ([1]; 1000 nM) of the same compound?
Its inhibition at 1 µM is 7%.

And the inhibition at 0.01 µM ([2]; 10 nM)?
Its inhibition at 0.01 µM is 1%.

And the inhibition at 0.1 µM ([2]; 100 nM)?
The inhibition at 0.1 µM was 15%.

And the inhibition at 1 µM ([2]; 1000 nM)?
Its inhibition at 1 µM is 18%.

What about the inhibition at 0.01 µM ([3]; 10 nM) of the same compound?
The inhibition at 0.01 µM was -23%.

And the inhibition at 0.1 µM ([3]; 100 nM)?
Its inhibition at 0.1 µM is -10%.

What about the inhibition at 1 µM ([3]; 1000 nM) of the same compound?
Its inhibition at 1 µM is 23%.

What about the inhibition at 0.01 µM ([4]; 10 nM) of the same compound?
The inhibition at 0.01 µM was -16%.

What about the inhibition at 0.1 µM ([4]; 100 nM) of the same compound?
The inhibition at 0.1 µM was -12%.

And the inhibition at 1 µM ([4]; 1000 nM)?
Its inhibition at 1 µM is -9%.

And the inhibition at 0.01 µM ([5]; 10 nM)?
The inhibition at 0.01 µM was 0%.

And the inhibition at 0.1 µM ([5]; 100 nM)?
The inhibition at 0.1 µM was -2%.

And the inhibition at 1 µM ([5]; 1000 nM)?
Its inhibition at 1 µM is 0%.

What about the inhibition at 0.01 µM ([6]; 10 nM) of the same compound?
Its inhibition at 0.01 µM is 0%.

And the inhibition at 0.1 µM ([6]; 100 nM)?
The inhibition at 0.1 µM was 7%.

What about the inhibition at 1 µM ([6]; 1000 nM) of the same compound?
The inhibition at 1 µM was 1%.

And the inhibition at 0.01 µM ([7]; 10 nM)?
The inhibition at 0.01 µM was -11%.

And the inhibition at 0.1 µM ([7]; 100 nM)?
The inhibition at 0.1 µM was -18%.

And the inhibition at 1 µM ([7]; 1000 nM)?
Its inhibition at 1 µM is -11%.
